Active and inactive are the calls of the source. No cut-off for these calls is given here.

In the test the test system is Influenza A virus. Briefly: Antiviral activity against Influenza A virus A2/Asian/J305 infected in Swiss albino mouse assessed as increase in host survival at 50 mg/kg, ip administered as 7 doses immediately before virus inoculation and at 1, 5, 24, 30, 48 and 72 hrs after virus infection measured on 21st day post-infection. Format: functional, organism-based. More on the design: dose 50 mg/kg.
`Nc1nnnn1[C@@H]1O[C@H](CO)[C@@H](O)[C@H]1O`: the result was inactive.

Consider `NC(=O)c1ncn([C@@H]2O[C@H](CO)[C@@H](O)[C@H]2O)n1`, for which the outcome was Active.

As for `Nc1nnn([C@@H]2O[C@H](CO)[C@@H](O)[C@H]2O)n1`, the outcome was inactive.

The values above are taken from ChEMBL document CHEMBL3272124, “Synthesis of tetrazole ribonucleosides and their evaluation as antiviral agents. 2. 5-Amino-1-(beta-D-ribofuranosyl)-1H-tetrazole and 5-amino-2-(beta-D-ribofuranosyl)-2H-tetrazole” (J Med Chem, 1976).
